Experiments:
[1] = system: CFTR mRNA; assay: CFTR mRNA quantification in CFBE cells; type: cell-based, human; details: 24 hours, 2000 nM
Description: CFBE-F508del-CFTR cells were seeded at 70,000 cells per well in a FNC-coated 48-well plate and incubated for 24 hours with 2000 nM of indicated correctors or DMSO vehicle diluted in growth medium deprived of FBS but supplemented with 1% HSA. CFBE-WT-CFTR cells were treated with DMSO vehicle accordingly. Then, cells were washed twice with PBS^+ and lysed in RLT buffer (QIAGEN) for 10 min on ice. Lysates were fully homogenized with QIAshredder (#79656, QIAGEN), and total RNA was extracted with an RNeasy Mini kit (#74106, QIAGEN) following the manufacturer’s instruction. At the end, a deoxyribonuclease treatment was performed with a DNA-free kit (Invitrogen, AM1906) following the manufacturer’s instruction. A reverse transcription (150 ng of total RNA per sample) with random hexamers was performed with the high-capacity cDNA Reverse Transcription Kit (#4368814, Thermo Fisher Scientific) for 2 hours at 37°C. Three microliters of cDNA was mixed with 10 μl of TaqMan Fast Universal PCR (polymerase chain reaction) Master Mix (2×) No AmpErase UNG (4367848, Life Technologies) containing the probe of interest (1:20), and a quantitative PCR was run [20″ at 95°C; 3″ at 95°C to 30″ at 60°C (40 cycles)] on a 7500 Applied Biosystems device. […] Reference gene-normalized CFTR mRNA expression was calculated using ΔΔCt method with CFTR expression in vehicle-treated CFBE-F508del cells set to 1.

[2] = system: 10 most frequent CF-causing CFTR folding mutations; assay: CFTR correction (immunoblotting) in HEK-TREx cells expressing CF-causing CFTR folding mutations; type: cell-based, human; details: many mutants
Source text: The human CFTR expressing HEK cell pools with the mutations described below were generated by integrase-mediated homologous recombination of the CFTR sequence into the T-REx HEK293 background (Thermo Fisher Scientific). This expression system allows the tetracycline-inducible expression of genes of interest from one defined insertion site. Parental T-REx-HEK293 cells were cultivated in growth medium: Dulbecco’s modified Eagle’s medium + GlutaMAX-I (#31966, Life Technologies), 10% dialyzed FBS (Gibco, #26400), penicillin (100 U/ml), streptomycin (100 μg/ml), hygromycin B (0.1 mg/ml; Life Technologies), blasticidin (5 μg/ml; Invitrogen, #R210-01), and 0.1 mM nonessential amino acid solution (Invitrogen, #11140-035). Recombinant T-REx-HEK-CFTR cells were generated by lipofectamine transfection (Life Technologies) of plasmids containing mutated versions of CFTR (RefSeq NM_000492) and then cultivated in selection medium [growth medium containing Geneticin (1 mg/ml) (Invitrogen, #10131-027) instead of hygromycin]. The plasmid constructs were synthetized by GENEART (Thermo Fisher Scientific) and designed with the WT CFTR intron 5 to 6 (880 nucleotides) to prevent leaky expression issues during the cloning process in bacteria. […]

| SMILES | effect on CFTR mRNA levels [1] | correction by stand-alone treatment [2] |
| --- | --- | --- |
| Cc1nn(C)cc1S(=O)(=O)NC(=O)c1ccc(-n2ccc(OCC(C)(C)C(F)(F)F)n2)nc1N1C[C@@H](C)CC1(C)C [ELX, elexacaftor] | neither macrocycles nor ELX/TEZ affected these levels | no/little correction |
| CC(C)(CO)c1cc2cc(NC(=O)C3(c4ccc5c(c4)OC(F)(F)O5)CC3)c(F)cc2n1C[C@@H](O)CO [TEZ, tezacaftor] | neither macrocycles nor ELX/TEZ affected these levels | no/little correction |

— publication PMC11801377, “A uniquely efficacious type of CFTR corrector with complementary mode of action” (Science Advances, 2024)
